From ChEMBL document CHEMBL4414666, “Structure-Activity Relationships of Pentacyclic Triterpenoids as Inhibitors of Cyclooxygenase and Lipoxygenase Enzymes” (J Nat Prod, 2019)

Experiments:
[1] = target: T1, Polyunsaturated fatty acid lipoxygenase ALOX15B (Homo sapiens) (UniProt O15296); assay: Inhibition of human recombinant N-terminal His-tagged 15-LOX2 expressed in Escherichia coli assessed as residual activity at 42 uM using arachidonic acid as substrate preincubated for 5 mins followed by substrate addition measured after 20 mins in dark by ferric ion oxidation-xylenol orange assay relative to control
T1 sequence (whole entry): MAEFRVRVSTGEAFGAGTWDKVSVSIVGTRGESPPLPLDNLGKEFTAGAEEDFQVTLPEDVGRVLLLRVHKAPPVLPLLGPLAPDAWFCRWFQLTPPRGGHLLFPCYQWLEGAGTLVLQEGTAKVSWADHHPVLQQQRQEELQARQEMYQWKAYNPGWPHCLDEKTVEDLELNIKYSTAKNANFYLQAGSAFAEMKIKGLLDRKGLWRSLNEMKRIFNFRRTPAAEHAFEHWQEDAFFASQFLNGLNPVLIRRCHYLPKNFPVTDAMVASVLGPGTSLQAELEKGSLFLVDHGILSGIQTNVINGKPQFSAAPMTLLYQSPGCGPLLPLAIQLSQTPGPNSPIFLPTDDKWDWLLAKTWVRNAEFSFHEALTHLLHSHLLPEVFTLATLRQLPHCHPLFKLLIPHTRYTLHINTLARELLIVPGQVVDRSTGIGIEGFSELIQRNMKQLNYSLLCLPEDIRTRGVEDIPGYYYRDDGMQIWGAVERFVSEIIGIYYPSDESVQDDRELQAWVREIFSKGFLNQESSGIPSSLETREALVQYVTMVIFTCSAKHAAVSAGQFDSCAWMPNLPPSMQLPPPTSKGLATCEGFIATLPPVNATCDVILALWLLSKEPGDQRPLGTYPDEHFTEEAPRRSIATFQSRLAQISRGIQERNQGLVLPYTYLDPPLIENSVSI

[2] = target: T2, Prostaglandin G/H synthase 2 (Homo sapiens, UniProt P35354); assay: biochemical; type: cell-based, Sf21;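 note: recombinant enzyme produced in baculovirus-infected Sf21 cells, arachidonic acid substrate, PGE2 output quantified by LC-MS after 45 min, compounds preincubated 10 min beforehand, lower PGE2 means inhibition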
T2 sequence (P35354 whole entry): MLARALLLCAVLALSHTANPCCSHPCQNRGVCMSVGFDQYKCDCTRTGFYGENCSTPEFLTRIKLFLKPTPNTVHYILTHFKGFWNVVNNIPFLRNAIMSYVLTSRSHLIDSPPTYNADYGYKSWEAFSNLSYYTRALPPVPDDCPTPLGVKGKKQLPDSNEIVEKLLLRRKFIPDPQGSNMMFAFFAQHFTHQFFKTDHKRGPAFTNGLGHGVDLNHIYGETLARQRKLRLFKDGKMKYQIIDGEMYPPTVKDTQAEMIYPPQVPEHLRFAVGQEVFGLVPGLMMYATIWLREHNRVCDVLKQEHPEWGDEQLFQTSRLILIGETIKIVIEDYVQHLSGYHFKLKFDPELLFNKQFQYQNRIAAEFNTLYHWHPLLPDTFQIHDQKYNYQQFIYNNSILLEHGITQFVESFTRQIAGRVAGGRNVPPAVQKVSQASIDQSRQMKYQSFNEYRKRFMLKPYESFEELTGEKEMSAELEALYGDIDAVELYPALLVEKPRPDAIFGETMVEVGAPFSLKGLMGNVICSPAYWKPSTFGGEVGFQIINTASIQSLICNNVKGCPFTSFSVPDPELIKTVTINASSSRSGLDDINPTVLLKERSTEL
Description: Inhibition of human recombinant COX2 expressed in baculovirus infected sf21 cells assessed as decrease in PGE2 formation using arachidonic acid as substrate preincubated for 10 mins followed by substrate addition measured after 45 mins by LC-MS analysis

[3] = target: T3, Polyunsaturated fatty acid lipoxygenase ALOX15B (Homo sapiens, UniProt O15296); assay: Inhibition of human recombinant N-terminal His-tagged 15-LOX2 expressed in Escherichia coli using arachidonic acid as substrate preincubated for 5 mins followed by substrate addition measured after 20 mins in dark by ferric ion oxidation-xylenol orange assay
T3 sequence (O15296 whole entry): T1 sequence (whole entry)

[4] = target: T4, Polyunsaturated fatty acid 5-lipoxygenase (Homo sapiens) (UniProt P09917); assay: Inhibition of human recombinant 5-LOX expressed in insect cells assessed residual activity using arachidonic acid at 42 uM as substrate preincubated for 5 mins followed by substrate addition measured after 20 mins in dark by ferric ion oxidation-xylenol orange method relative to control
T4 sequence (whole entry): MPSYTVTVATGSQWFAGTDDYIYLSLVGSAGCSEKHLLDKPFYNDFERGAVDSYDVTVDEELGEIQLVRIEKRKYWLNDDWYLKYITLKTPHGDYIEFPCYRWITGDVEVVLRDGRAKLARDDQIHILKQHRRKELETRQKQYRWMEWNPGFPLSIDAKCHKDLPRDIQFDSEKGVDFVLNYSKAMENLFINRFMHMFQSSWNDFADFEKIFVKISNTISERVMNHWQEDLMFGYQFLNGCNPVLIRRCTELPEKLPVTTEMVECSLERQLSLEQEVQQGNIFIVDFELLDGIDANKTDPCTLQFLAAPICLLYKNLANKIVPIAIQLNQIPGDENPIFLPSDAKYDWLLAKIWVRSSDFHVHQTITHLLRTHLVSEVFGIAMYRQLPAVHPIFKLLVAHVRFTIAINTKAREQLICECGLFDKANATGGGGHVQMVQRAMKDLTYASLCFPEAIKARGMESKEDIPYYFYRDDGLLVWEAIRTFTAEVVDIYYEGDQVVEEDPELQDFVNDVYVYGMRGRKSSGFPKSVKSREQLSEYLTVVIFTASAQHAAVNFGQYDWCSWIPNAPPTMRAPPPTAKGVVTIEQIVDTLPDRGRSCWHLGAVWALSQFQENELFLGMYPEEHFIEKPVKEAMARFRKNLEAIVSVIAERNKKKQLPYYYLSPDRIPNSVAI

[5] = target: T5, Polyunsaturated fatty acid 5-lipoxygenase (Homo sapiens, UniProt P09917); assay: Inhibition of human recombinant 5-LOX expressed in insect cells assessed as decrease in production of 5-HPETE and 5-HETE using arachidonic acid as substrate preincubated for 5 mins followed by substrate addition measured after 20 mins in dark by ferric ion oxidation-xylenol orange method
T5 sequence (P09917 whole entry): T4 sequence (whole entry)

[6] = target: T6, Prostaglandin G/H synthase 1 (Ovis aries, UniProt P05979);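 note: recombinant ovine COX1 enzyme, PGE2 formed from arachidonic acid quantified by LC-MS, 10 min inhibitor preincubation then 45 min reaction, inhibition seen as reduced PGE2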
T6 sequence (P05979 whole entry): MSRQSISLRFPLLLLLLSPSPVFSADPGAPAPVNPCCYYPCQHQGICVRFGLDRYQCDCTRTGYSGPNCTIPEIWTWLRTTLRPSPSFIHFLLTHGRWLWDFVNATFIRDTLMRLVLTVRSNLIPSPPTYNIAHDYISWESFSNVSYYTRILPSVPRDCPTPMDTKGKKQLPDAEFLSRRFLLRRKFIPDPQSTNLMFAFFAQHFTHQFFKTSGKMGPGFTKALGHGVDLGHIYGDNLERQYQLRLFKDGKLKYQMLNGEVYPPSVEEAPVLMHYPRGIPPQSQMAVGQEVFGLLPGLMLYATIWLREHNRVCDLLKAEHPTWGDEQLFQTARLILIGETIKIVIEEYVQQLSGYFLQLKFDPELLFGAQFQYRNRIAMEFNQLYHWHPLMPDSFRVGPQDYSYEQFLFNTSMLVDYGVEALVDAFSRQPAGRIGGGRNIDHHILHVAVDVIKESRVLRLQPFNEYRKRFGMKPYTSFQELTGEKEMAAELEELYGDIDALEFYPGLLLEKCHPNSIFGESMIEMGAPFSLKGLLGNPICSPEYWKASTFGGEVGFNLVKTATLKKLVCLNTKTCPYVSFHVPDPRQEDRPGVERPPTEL
Description: Inhibition of ovine recombinant COX1 assessed as decrease in formation of PGE2 using arachidonic acid as substrate preincubated for 10 mins followed by substrate addition measured after 45 mins by LC-MS analysis

Row | Compound | Activity [1] | IC50 ([2]; sf21) | IC50 [3] | Activity [4] | IC50 ([5]; read-out: IC50) | IC50 [6] | IC50 ([2]; read-out: IC50) | IC50 ([3]; read-out: IC50) | IC50 [5]
1 | CC1(C)CC[C@]2(C)CC[C@]3(C)C(=CC[C@@H]4[C@@]5(C)CC[C@H](O)[C@](C)(CO)[C@@H]5CC[C@]43C)[C@@H]2C1 | 100% | Not Active | Not Active | 29.8% | 30.6 µM | Not Active |  |  | 
2 | CC1(C)[C@@H](O)CC[C@]2(C)[C@H]3CC=C4[C@@H]5C[C@@](C)(C(=O)O)CC[C@]5(C)CC[C@@]4(C)[C@]3(C)CC[C@@H]12 | 100% |  | Not Active | 49% |  |  | > 40 µM |  | 
3 | CC(=O)O[C@@H]1CC[C@@]2(C)[C@@H](CC[C@]3(C)[C@@H]2CC=C2[C@@H]4CC(C)(C)CC[C@]4(C)CC[C@]23C)[C@@]1(C)C(=O)O | 100% |  | Not Active | 93.1% | > 40 µM |  | > 40 µM |  | 
4 | CC1(C)CC[C@]2(C(=O)O)CC[C@]3(C)C(=CC[C@@H]4[C@@]5(C)C[C@H](O)[C@H](O)[C@@](C)(C(=O)O)[C@@H]5CC[C@]43C)[C@@H]2C1 | 100% |  | Not Active | 40.7% | 30.4 µM | Not Active | > 40 µM |  | 
5 | CC1(C)CC[C@]2(C(=O)O)CC[C@]3(C)C(=CC[C@@H]4[C@@]5(C)C[C@@H](O)[C@H](O)C(C)(C)[C@@H]5CC[C@]43C)[C@@H]2C1 [MASLINIC ACID] | 100% |  | Not Active | 62.9% | > 40 µM |  | > 40 µM |  | 
6 | CC(=O)O[C@@H]1CC[C@@]2(C)[C@@H](CC[C@]3(C)[C@@H]2CC=C2[C@@H]4[C@@H](C)[C@H](C)CC[C@]4(C)CC[C@]23C)[C@@]1(C)C(=O)O | 24.9% |  |  | 69.5% | > 40 µM |  | > 40 µM | 12.2 µM | 
7 | CC1(C)CC[C@]2(C)CC[C@]3(C)C(=CC[C@@H]4[C@@]5(C)CCC(=O)C(C)(C)[C@@H]5CC[C@]43C)[C@@H]2C1 | 100% | Not Active | Not Active | 100% |  |  |  |  | Not Active
8 | CC1(C)CC[C@]2(C(=O)O)CC[C@]3(C)C(=CC[C@@H]4[C@@]5(C)C[C@@H](O)[C@H](O)[C@@](C)(CO)[C@@H]5CC[C@]43C)[C@@H]2C1 [ARJUNOLIC ACID] | 100% |  | Not Active | 47.7% |  |  | > 40 µM |  | 
9 | CC(=O)O[C@@H]1CC[C@@]2(C)[C@@H](CC[C@]3(C)[C@@H]2C(=O)C=C2[C@@H]4[C@@H](C)[C@H](C)CC[C@]4(C)CC[C@]23C)[C@@]1(C)C(=O)O [AKBA] | 81.7% |  |  | 41.2% | 35.6 µM |  | > 40 µM | > 40 µM | 
10 | C[C@H]1[C@H](C)CC[C@]2(C)CC[C@]3(C)C(=CC(=O)[C@@H]4[C@@]5(C)CC[C@@H](O)[C@](C)(C(=O)O)[C@@H]5CC[C@]43C)[C@H]12 [11-KETO BOSWELLIC ACID] | 100% |  | Not Active | 31.9% | 28.3 µM |  | > 40 µM |  | 
11 | CC(Cc1ccc(O)c(O)c1)C(C)Cc1ccc(O)c(O)c1 (centres undefined) | 31.4% |  |  |  |  |  |  |  | 
12 | CC1(C)CC[C@]2(C)CC[C@]3(C)C(=CC[C@@H]4[C@@]5(C)CC[C@@H](O)[C@](C)(C(=O)O)[C@@H]5CC[C@]43C)[C@@H]2C1 | 100% |  | Not Active | 48.7% |  |  | > 40 µM |  | 

Continued, values first:

Row | Activity [1] | IC50 ([2]; sf21) | IC50 [3] | Activity [4] | IC50 ([5]; read-out: IC50) | IC50 [6] | IC50 ([2]; read-out: IC50) | IC50 ([3]; read-out: IC50) | IC50 [5] | Compound
13 | 63.6% |  |  | 64% | > 40 µM |  | > 40 µM | > 40 µM |  | C[C@H]1[C@H](C)CC[C@]2(C(=O)O)CC[C@]3(C)C(=CC[C@@H]4[C@@]5(C)CC[C@H](O)C(C)(C)[C@@H]5CC[C@]43C)[C@H]12 [URSOLIC ACID]
14 | 100% |  | Not Active | 61.9% | > 40 µM |  | > 40 µM |  |  | C[C@H]1[C@H](C)CC[C@]2(C(=O)O)CC[C@]3(C)C(=CC[C@@H]4[C@@]5(C)C[C@@H](O)[C@H](O)[C@@](C)(CO)[C@@H]5CC[C@]43C)[C@H]12 [ASIATIC ACID]
15 | 100% |  | Not Active | 53.4% | > 40 µM |  | > 40 µM |  |  | C[C@H]1[C@H](C)CC[C@]2(C)CC[C@]3(C)C(=CC[C@@H]4[C@@]5(C)CC[C@@H](O)[C@](C)(C(=O)O)[C@@H]5CC[C@]43C)[C@H]12 [BOSWELLIC ACID]
16 | 100% |  | Not Active | 100% |  |  |  |  | Not Active | CC1(C)CC[C@]2(C(=O)O)CC[C@]3(C)C(=CC[C@@H]4[C@@]5(C)CC[C@H](O)C(C)(C)[C@@H]5CC[C@]43C)[C@@H]2C1 [OLEANOLIC_ACID]
17 | 100% |  | Not Active | 66.7% | > 40 µM |  | > 40 µM |  |  | C[C@H]1[C@H](C)CC[C@]2(C(=O)O)CC[C@]3(C)C(=CC[C@@H]4[C@@]5(C)C[C@@H](O)[C@H](O)C(C)(C)[C@@H]5CC[C@]43C)[C@H]12 [COROSOLIC ACID]
18 | 70.2% | Not Active |  | 45% |  | Not Active |  | > 40 µM |  | C[C@H]1[C@H](C)CC[C@]2(CO)CC[C@]3(C)C(=CC[C@@H]4[C@@]5(C)CC[C@H](O)C(C)(C)[C@@H]5CC[C@]43C)[C@H]12 [UVAOL]
